What all share (type): cell-based
The test system of one experiment is Staph. aureus 285. As to the kind of experiment: agar dilution test, MIC, Staph. aureus 285. To be noted: Staphylococcus aureus, Mueller Hinton agar, 16 to 18 hours, 37° C., read-out: Minimum Inhibitory Concentration. The method, then:
(§1) The antimicrobial activity was determined by measuring the Minimum Inhibitory Concentration (MIC). The MIC of the compounds was determined by a standard test, the "agar dilution test" according to Lorian (Antibioticsin Laboratory Medicine, Williams and Wilkins, Baltimore/London 1980) as follows:
(§2) A two-fold decreasing concentration series of each compound was prepared in Petri dishes containing 15 ml of Mueller Hinton agar (Difco). One Petri dish containing only the Mueller Hinton agar served as control for bacterial growth. Each Petri dish was inoculated with a multi-point inoculator (Denley), which transfered 0.6 μl of a 1:100 diluted 18 hours culture of the appropriate test bacterium. After 16 to 18 hours of incubation at 37° C., the Petri dishes were examined for growth of bacteria. The lowest concentration of the compound which causes complete inhibition of growth is taken as the MIC.
(In agar dilution the substance is mixed into plates at graded concentrations.)

The next experiment has as its system E. coli DC2. Briefly: agar dilution test, MIC, E. coli DC2. As to conditions: Escherichia coli, Mueller Hinton agar, 16 to 18 hours, 37° C., read-out: Minimum Inhibitory Concentration. The method, then: as §1, §2
In another experiment the test system is Staph. aureus 503. As to the kind of experiment: agar dilution test, MIC, Staph. aureus 503. To be noted: Staphylococcus aureus, Mueller Hinton agar, 16 to 18 hours, 37° C., read-out: Minimum Inhibitory Concentration. The method, then:
as §1, §2

In the next experiment the test system is Kl. aerog. 1082 E. As to the kind of experiment: agar dilution test, MIC, Kl. aerog. 1082 E. As to conditions: Mueller Hinton agar, 16 to 18 hours, 37° C., read-out: Minimum Inhibitory Concentration. The protocol: as §1, §2
The next experiment relates to E. coli TEM. As to the kind of experiment: agar dilution test, MIC, E. coli TEM. To be noted: Escherichia coli, 18 h, read-out: Minimum Inhibitory Concentration. The protocol: as §1, §2
In a further experiment the test system is Ent. cloacae 1321 E. As to the kind of experiment: agar dilution test, MIC, Ent. cloacae 1321 E. As to conditions: Enterobacter cloacae, Mueller Hinton agar, 16 to 18 hours, 37° C., read-out: Minimum Inhibitory Concentration. The protocol: as §1, §2
A further experiment relates to Staph. aureus SG 511. Briefly: agar dilution test, MIC, Staph. aureus SG 511. To be noted: Staphylococcus aureus, SG511, Mueller Hinton agar, 16 to 18 hours, 37° C., read-out: Minimum Inhibitory Concentration. The method, then:
as §1, §2

The subject of the next experiment is Bac. subtilis ATCC 6633. As to the kind of experiment: agar dilution test, MIC, Bac. subtilis ATCC 6633. To be noted: Bacillus subtilis, ATCC6633, Mueller Hinton agar, 16 to 18 hours, 37° C., read-out: Minimum Inhibitory Concentration. The method, then: as §1, §2
The next experiment has as its system E. coli 055. As to the kind of experiment: agar dilution test, MIC, E. coli 055. To be noted: Escherichia coli, Mueller Hinton agar, 16 to 18 hours, 37° C., read-out: Minimum Inhibitory Concentration. The protocol: as §1, §2
The next experiment concerns E. coli 1507 E. As to the kind of experiment: agar dilution test, MIC, E. coli 1507 E. To be noted: Escherichia coli, Mueller Hinton agar, 16 to 18 hours, 37° C., read-out: Minimum Inhibitory Concentration. The protocol:
as §1, §2

The test system of experiment [1] is a variety of microorganisms, particularly β-lactamase producing organisms. Briefly: antibacterial activity compared with the corresponding unsubstituted 3-phenoxy compound. As to conditions: against a variety of microorganisms. The method, then:
as §1, §2

The next experiment has as its system Salm. typhimurium MZ II. Briefly: agar dilution test, MIC, Salm. typhimurium MZ II. To be noted: Salmonella enterica, Mueller Hinton agar, 16 to 18 hours, 37° C., read-out: Minimum Inhibitory Concentration. The protocol:
as §1, §2

In a further experiment the test system is Kl. aerog. 1522 E. As to the kind of experiment: agar dilution test, MIC, Kl. aerog. 1522 E. As to conditions: Mueller Hinton agar, 16 to 18 hours, 37° C., read-out: Minimum Inhibitory Concentration. The method, then:
as §1, §2

In the next experiment the test system is Str. pyogenes 77A. As to the kind of experiment: agar dilution test, MIC, Str. pyogenes 77A. As to conditions: Streptococcus pyogenes, Mueller Hinton agar, 16 to 18 hours, 37° C., read-out: Minimum Inhibitory Concentration. The method, then: as §1, §2
A further experiment concerns Str. faecium D. Briefly: agar dilution test, MIC, Str. faecium D. To be noted: Enterococcus faecium, Mueller Hinton agar, 16 to 18 hours, 37° C., read-out: Minimum Inhibitory Concentration. The method, then:
as §1, §2

The subject of another experiment is E. coli KN 126. Briefly: agar dilution test, MIC, E. coli KN 126. To be noted: Escherichia coli, KN126, Mueller Hinton agar, 16 to 18 hours, 37° C., read-out: Minimum Inhibitory Concentration. The protocol: as §1, §2
The test system of the next experiment is Str. pyogenes 308 A. Briefly: agar dilution test, MIC, Str. pyogenes 308 A. To be noted: Streptococcus pyogenes, Mueller Hinton agar, 16 to 18 hours, 37° C., read-out: Minimum Inhibitory Concentration. The protocol: as §1, §2

Structures are written as SMILES. ≈ marks a conversion by molar mass, not a printed value.

`C[C@@H](O)[C@H]1C(=O)N2C(C(=O)O)=C(Oc3ccc(C(N)=O)cc3)S[C@H]12` [Ra = 4-CONH2, 5R-3-(4-carbamoylphenoxy)-6S-(1R-hydroxyethyl)-7-oxo-4-thia-1-azabicyclo[3,2,0]hept-2-ene-2-carboxylate]: the MIC is 0.1 µg/mL (≈ 0.285 µM) with Staph. aureus 285; 0.78 µg/mL (≈ 2.23 µM) with E. coli DC2; 0.1 µg/mL (≈ 0.285 µM) in the experiment with Staph. aureus 503; 0.39 µg/mL (≈ 1.11 µM) in the experiment with Kl. aerog. 1082 E; 0.39 µg/mL (≈ 1.11 µM) in the experiment on E. coli TEM; 0.78 µg/mL (≈ 2.23 µM) with Ent. cloacae 1321 E. Also, the MIC in the experiment on Staph. aureus SG 511 was 0.05 µg/mL (≈ 0.143 µM); in the experiment with Bac. subtilis ATCC 6633, 0.05 µg/mL (≈ 0.143 µM); with E. coli 055, 0.19 µg/mL (≈ 0.542 µM); with E. coli 1507 E, 0.39 µg/mL (≈ 1.11 µM); with Salm. typhimurium MZ II, 0.78 µg/mL (≈ 2.23 µM); in the experiment with Kl. aerog. 1522 E, 0.78 µg/mL (≈ 2.23 µM). In addition, the MIC with Str. pyogenes 77A is 0.05 µg/mL (≈ 0.143 µM); with Str. faecium D, 6.25 µg/mL (≈ 17.8 µM); in the experiment with E. coli KN 126, 0.39 µg/mL (≈ 1.11 µM); in the experiment on Str. pyogenes 308 A, 0.025 µg/mL (≈ 0.0714 µM). Besides, the “antibacterial activity versus the corresponding unsubstituted 3-phenoxy compound” value in [1] is on record as “greater antibacterial activity”.

The values are drawn from patent US4795748A, “Antibacterial 7-oxo-4-thia-1-azabicyclo[3,2,0]hept-2-ene derivatives” (Hoechst UK Limited, priority 1984, dated 1989).
